EC50 data for 23 molecules are collected here from ChEMBL document CHEMBL4196076, “An access to a library of novel triterpene derivatives with a promising pharmacological potential by Ugi and Passerini multicomponent reactions” (Eur J Med Chem, 2018).

For assay [1], the system named is FaDu. The assay can be described thus: Cytotoxicity against human FADU cells after 96 hrs by sulforhodamine-B assay. The format is functional, cell-based.
The test system of assay [2] is HT-29. Put plainly: Cytotoxicity against human HT-29 cells after 96 hrs by sulforhodamine-B assay. Format: functional, cell-based. The conditions noted are these: HT-29, 96 h. For orientation: The SRB assay estimates cell density from bound dye.
Assay [3] concerns NIH3T3. Put plainly: Cytotoxicity against mouse NIH/3T3 cells after 96 hrs by sulforhodamine-B assay. The format is cell-based. The conditions noted are these: NIH3T3, 96 h.
Assay [4] relates to MCF7. The assay can be described thus: Cytotoxicity against human MCF7 cells after 96 hrs by sulforhodamine-B assay. Format: functional, cell-based. The note with it: MCF7, 96 h.
The test system of assay [5] is 518A2. Put plainly: Cytotoxicity against human 518A2 cells after 96 hrs by sulforhodamine-B assay. The format is functional, cell-based. The note with it: 518A2, 96 h.
Assay [6] concerns A2780. The assay can be described thus: Cytotoxicity against human A2780 cells after 96 hrs by sulforhodamine-B assay. The note with it: A2780, 96 h. The format is functional, cell-based.
Assay [7] has as its system A549. Put plainly: Cytotoxicity against human A549 cells after 96 hrs by sulforhodamine-B assay. The note with it: A549, 96 h. Format: functional, cell-based.

Consider `CCCCNC(=O)CN(Cc1ccccc1)C(=O)[C@]12CCC(C)(C)C[C@H]1C1=CC[C@@H]3[C@@]4(C)CC[C@H](O)C(C)(C)[C@@H]4CC[C@@]3(C)[C@]1(C)CC2`, for which the EC50 in assay [1], in assay [2], in assay [3], in assay [4], in assay [5] and in assay [6] was > 30 µM each time.

Regarding `CC1(C)CC[C@]2(C(=O)N(CC(=O)NC(C)(C)C)Cc3ccccc3)CC[C@]3(C)C(=CC[C@@H]4[C@@]5(C)CC[C@H](O)C(C)(C)[C@@H]5CC[C@]43C)[C@@H]2C1`, the EC50 – broadly, the concentration needed to bring the measured effect to its halfway point – in assay [1] was 17.8 µM; in assay [2], 11.5 µM; in assay [3], 8.8 µM; in assay [4], 14.8 µM; in assay [5], 11.4 µM; in assay [6] it was 13.5 µM.

Consider `CC1(C)CC[C@]2(C(=O)O)CC[C@]3(C)C(=CC[C@@H]4[C@@]5(C)CC[C@H](O)C(C)(C)[C@@H]5CC[C@]43C)[C@@H]2C1` [OLEANOLIC_ACID], for which the EC50 stood at 66.7 µM in assay [1]; 44.9 µM in assay [2]; 57.9 µM in assay [3]; 49.1 µM in assay [4]; 61.3 µM in assay [5]; 64.1 µM in assay [7]. Further, the EC50 in assay [6] was found to be 58.2 µM.

In the case of `CC(=O)O[C@@H]1C[C@]2(C)[C@H]3CC=C4[C@@H]5CC(C)(C)CC[C@]5(C(=O)OCC(=O)NCc5ccccc5)CC[C@@]4(C)[C@]3(C)CC[C@H]2C(C)(C)[C@H]1OC(C)=O`, the EC50 is 7.3 µM in assay [1]; 4.9 µM in assay [2]; 2 µM in assay [3]; 3.6 µM in assay [4]; 4.3 µM in assay [5]; 3.2 µM in assay [7]. This molecule also yielded an EC50 in assay [6] of 1 µM.

`C=CCN(CC(=O)NCc1ccccc1)C(=O)[C@]12CCC(C)(C)C[C@H]1C1=CC[C@@H]3[C@@]4(C)CC[C@H](O)C(C)(C)[C@@H]4CC[C@@]3(C)[C@]1(C)CC2`: the concentration for a half-maximal effect (EC50) in assay [1], in assay [2], in assay [3], in assay [4], in assay [5] and in assay [7] was > 30 µM each time. In assay [6], the EC50 amounted to 12.9 µM.

On to `C=CCN(CC(=O)NC(C)(C)C)C(=O)[C@]12CCC(C)(C)C[C@H]1C1=CC[C@@H]3[C@@]4(C)CC[C@H](OC(C)=O)C(C)(C)[C@@H]4CC[C@@]3(C)[C@]1(C)CC2`, for which the EC50 in assay [1] is > 30 µM; in assay [2] it was > 30 µM; in assay [3], > 30 µM; in assay [4], 12.1 µM; in assay [5], 22.5 µM; in assay [7] it was 24.2 µM. In addition, in assay [6], the half-maximal effective concentration (EC50) came out at 12.5 µM.

For `CC(=O)O[C@H]1CC[C@]2(C)[C@H]3CC=C4[C@@H]5CC(C)(C)CC[C@]5(C(=O)N(CC(=O)NC(C)(C)C)Cc5ccoc5)CC[C@@]4(C)[C@]3(C)CC[C@H]2C1(C)C`, the EC50 in assay [1] was 29.1 µM; in assay [2], > 30 µM; in assay [3], > 30 µM; in assay [4], 19.8 µM; in assay [5] it was 24.7 µM; in assay [7], 24.2 µM. Besides, the EC50 in assay [6] is 7.1 µM.

Regarding `CC(=O)O[C@@H]1C[C@]2(C)[C@H]3CC=C4[C@@H]5CC(C)(C)CC[C@]5(C(=O)O)CC[C@@]4(C)[C@]3(C)CC[C@H]2C(C)(C)[C@H]1OC(C)=O`, the EC50 was determined as 21.3 µM in assay [1]; 25.5 µM in assay [2]; 12.2 µM in assay [3]; 1.6 µM in assay [4]; 18.9 µM in assay [7]; 10.5 µM in assay [6].

`CC(=O)O[C@H]1CC[C@]2(C)[C@H]3CC=C4[C@@H]5CC(C)(C)CC[C@]5(C(=O)N(CC(=O)NCc5ccccc5)Cc5ccoc5)CC[C@@]4(C)[C@]3(C)CC[C@H]2C1(C)C`: the EC50 in assay [1] is 22.1 µM; in assay [2], > 30 µM; in assay [3] it was > 30 µM; in assay [4] it was 15 µM; in assay [5] it was 15.9 µM; in assay [7], > 30 µM. Besides, the EC50 in assay [6] worked out at 6.3 µM.

With `CC(C)NC(=O)CN(Cc1ccoc1)C(=O)[C@]12CCC(C)(C)C[C@H]1C1=CC[C@@H]3[C@@]4(C)CC[C@H](O)C(C)(C)[C@@H]4CC[C@@]3(C)[C@]1(C)CC2`, the EC50 in assay [1] was found to be 7.9 µM; in assay [2], 4.9 µM; in assay [3], 5.5 µM; in assay [4], 4.9 µM; in assay [5] it was 5.5 µM; in assay [6], 5.9 µM.

On to `CC1(C)CC[C@]2(C(=O)N(CC(=O)NCc3ccccc3)Cc3ccccc3)CC[C@]3(C)C(=CC[C@@H]4[C@@]5(C)CC[C@H](O)C(C)(C)[C@@H]5CC[C@]43C)[C@@H]2C1`, for which the EC50 in assay [1], in assay [2], in assay [3], in assay [4], in assay [5] and in assay [6] was > 30 µM throughout.

For `CCCCN(CC(=O)NCc1ccccc1)C(=O)[C@]12CCC(C)(C)C[C@H]1C1=CC[C@@H]3[C@@]4(C)CC[C@H](O)C(C)(C)[C@@H]4CC[C@@]3(C)[C@]1(C)CC2`, the EC50 was > 30 µM in assay [1]; 15.6 µM in assay [2]; > 30 µM in assay [3]; 24.6 µM in assay [4]; > 30 µM in assay [5]; > 30 µM in assay [6].

In the case of `CC1(C)CC[C@]2(C(=O)N(CC(=O)NCc3ccccc3)Cc3ccoc3)CC[C@]3(C)C(=CC[C@@H]4[C@@]5(C)CC[C@H](O)C(C)(C)[C@@H]5CC[C@]43C)[C@@H]2C1`, the EC50 in assay [1] is > 30 µM; in assay [2] it was > 30 µM; in assay [3], > 30 µM; in assay [4], 12.6 µM; in assay [5], > 30 µM; in assay [7], > 30 µM. The EC50 in assay [6] was determined as 13.2 µM.

As for `C=CCN(CC(=O)NC(C)(C)C)C(=O)[C@]12CCC(C)(C)C[C@H]1C1=CC[C@@H]3[C@@]4(C)CC[C@H](O)C(C)(C)[C@@H]4CC[C@@]3(C)[C@]1(C)CC2`, the EC50 was 26 µM in assay [1]; 9.9 µM in assay [2]; 15.5 µM in assay [3]; 7 µM in assay [4]; 24.4 µM in assay [5]; 27.7 µM in assay [7]. A half-maximal effect in assay [6] (EC50) was put at 10.5 µM.

Turning to `CC(=O)O[C@H]1CC[C@]2(C)[C@H]3CC=C4[C@@H]5CC(C)(C)CC[C@]5(C(=O)OCC(=O)NCc5ccccc5)CC[C@@]4(C)[C@]3(C)CC[C@H]2C1(C)C`, the EC50 was 7.2 µM in assay [1]; 11.3 µM in assay [2]; 6.4 µM in assay [3]; 6.4 µM in assay [4]; 7.7 µM in assay [5]; 6.9 µM in assay [7]. The molecule also gave an EC50 in assay [6] of 6.8 µM.

With `CC(=O)O[C@H]1CC[C@]2(C)[C@H]3CC=C4[C@@H]5CC(C)(C)CC[C@]5(C(=O)N(CC(=O)NC(C)(C)C)Cc5cccc(F)c5)CC[C@@]4(C)[C@]3(C)CC[C@H]2C1(C)C`, the EC50 in assay [1], in assay [2], in assay [3], in assay [4], in assay [5] and in assay [7] was > 30 µM in each case. Also, the 50% effective concentration (EC50) in assay [6] stood at 10.4 µM.

On to `CC(=O)O[C@H]1CC[C@]2(C)[C@H]3CC=C4[C@@H]5CC(C)(C)CC[C@]5(C(=O)N(C)CC(=O)NC(C)(C)C)CC[C@@]4(C)[C@]3(C)CC[C@H]2C1(C)C`, for which the half-maximal effective concentration (EC50) in assay [1] was found to be 6.7 µM; in assay [2], 23.7 µM; in assay [3] it was 9.9 µM; in assay [4], 5.7 µM; in assay [5] it was 8.8 µM; in assay [6], 4.1 µM.

For the molecule `CC1(C)CC[C@]2(C(=O)O)CC[C@]3(C)C(=CC[C@@H]4[C@@]5(C)C[C@@H](O)[C@H](O)C(C)(C)[C@@H]5CC[C@]43C)[C@@H]2C1` [MASLINIC ACID], the EC50 in assay [1] is 17 µM; in assay [4], 37.2 µM.

For the molecule `CC(C)N(CC(=O)NCc1ccccc1)C(=O)[C@]12CCC(C)(C)C[C@H]1C1=CC[C@@H]3[C@@]4(C)CC[C@H](O)C(C)(C)[C@@H]4CC[C@@]3(C)[C@]1(C)CC2`, the EC50 was > 30 µM in assay [1]; > 30 µM in assay [2]; > 30 µM in assay [3]; 19.4 µM in assay [4]; > 30 µM in assay [5]; 15.4 µM in assay [6].

For `C=CCN(CC(=O)NCc1ccccc1)C(=O)[C@]12CCC(C)(C)C[C@H]1C1=CC[C@@H]3[C@@]4(C)CC[C@H](OC(C)=O)C(C)(C)[C@@H]4CC[C@@]3(C)[C@]1(C)CC2`, the EC50 in assay [1] was 15.5 µM; in assay [2] it was > 30 µM; in assay [3], > 30 µM; in assay [4], 19.2 µM; in assay [5], 18.9 µM; in assay [6], 6 µM.

As to `CCCCNC(=O)CN(Cc1ccoc1)C(=O)[C@]12CCC(C)(C)C[C@H]1C1=CC[C@@H]3[C@@]4(C)CC[C@H](O)C(C)(C)[C@@H]4CC[C@@]3(C)[C@]1(C)CC2`, the EC50 is > 30 µM in assay [1]; 15.9 µM in assay [2]; > 30 µM in assay [3]; 15.5 µM in assay [4]; > 30 µM in assay [5]; 17.6 µM in assay [6].

For the molecule `C=CCN(CC(=O)NCCCC)C(=O)[C@]12CCC(C)(C)C[C@H]1C1=CC[C@@H]3[C@@]4(C)CC[C@H](O)C(C)(C)[C@@H]4CC[C@@]3(C)[C@]1(C)CC2`, the EC50 is > 30 µM in assay [1]; > 30 µM in assay [2]; > 30 µM in assay [3]; 21.3 µM in assay [4]; > 30 µM in assay [5]; 19.3 µM in assay [6].

In the case of `CC1(C)CC[C@]2(C(=O)N(CC(=O)NC(C)(C)C)Cc3cccc(F)c3)CC[C@]3(C)C(=CC[C@@H]4[C@@]5(C)CC[C@H](O)C(C)(C)[C@@H]5CC[C@]43C)[C@@H]2C1`, the EC50 in assay [1], in assay [2], in assay [3], in assay [4], in assay [5] and in assay [6] was > 30 µM in each case.
